Results published in PMC9961948, “Interaction of Amphipathic Peptide from Influenza Virus M1 Protein with Mitochondrial Cytochrome Oxidase” (International Journal of Molecular Sciences, 2023).
Where two headings read alike, the source gives them in different places.

Legend:
[1] = molecular target: T1, CcO in rat liver mitochondria (Rattus norvegicus, UniProt P00406+P05503); experiment: CcO activity in the mitochondrial membrane (respiration of rat liver mitochondria); format: biochemical
T1 construct: Rat liver mitochondria were isolated by differential centrifugation; from tissue; host or cells: rat liver mitochondria
T1 sequence (P00406 whole entry, other chains not shown): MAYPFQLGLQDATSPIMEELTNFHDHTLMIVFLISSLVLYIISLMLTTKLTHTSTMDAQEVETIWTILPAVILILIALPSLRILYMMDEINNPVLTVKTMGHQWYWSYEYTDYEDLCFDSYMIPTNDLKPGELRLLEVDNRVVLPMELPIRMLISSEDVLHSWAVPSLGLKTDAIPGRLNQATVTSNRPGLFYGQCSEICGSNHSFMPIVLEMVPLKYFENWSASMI

[2] = test system: CcO reconstituted into asolectin vesicles; experiment: CcO activity in asolectin proteoliposomes; format: biochemical, Bos taurus; settings: peptide up to 150 μM
[3] = molecular target: T2, cytochrome c oxidase (CcO) purified from heart mitochondria (Bos taurus, UniProt P00396+P07471+P68530); experiment: Cytochrome oxidase activity of solubilized mitochondrial CcO (oxygen uptake); format: biochemical
T2 construct: Cytochrome c oxidase was purified from the heart mitochondria of Bos taurus; from tissue; host or cells: bovine heart mitochondria

[4] = Permeabilization of calcein-loaded asolectin liposomes (calcein release); settings: 5 μM peptide
[5] = test system: cytochrome c oxidase (CcO), peroxidase activity; experiment: Peroxidase partial activity of solubilized CcO (peroxidation of ferrocyanide); format: biochemical, Bos taurus; settings: 50 μM P4; 0.6 μM solubilized CcO, 0.2 mM ferrocyanide with equimolar ferricyanide, 4 mM H2O2
Procedure: The two-electron reduction of H2O2 to water refers to the peroxidase phase of the CcO catalytic cycle. As shown previously, this reaction can be carried out aerobically using a high-potential electron donor [51]. We followed this partial activity of CcO in the presence of a ferro/ferricyanide pair at E’ ≈ +420 mV when the oxidase reaction becomes negligible. Peroxidation of ferrocyanide by CcO was recorded spectrophotometrically (Figure 3).
Peroxidation of 0.2 mM ferrocyanide (against the background of equimolar ferricyanide) was monitored at 0.6 μM solubilized CcO. The reaction was triggered by the addition of 4 mM H2O2 (shown by the arrow). […] The initial jump upon H2O2 addition reflects spectral response in the γ-band of heme a3 upon oxoferryl intermediate formation.
Peroxidase partial activity of CcO was assayed in BM following peroxidation of ferrocyanide by the absorption difference at 420 nm vs. 500 nm references, using the spectrophotometer SLM Aminco DW-2000 (SLM Instruments, Urbana, IL, USA) in a dual-wavelength mode. In order to obtain a redox buffer with Em ≈ 420 mV, equal amounts of ferri- and ferrocyanide were mixed. No ferrocyanide oxidase activity was observed until the peroxidase reaction was initiated by the addition of H2O2. The reaction was carried out in a standard semi-micro cuvette (Hellma, Mullheim, Germany) with blackened side walls and a 10 mm light pathway.

Ac-RTKLWEMLVELGNMDKAVKLWRKLKR-NH2 [P4]
inhibitor concentration up to which the rate of the oxidase reaction remains almost unchanged [1]: ~ 10 μM | oxidase reaction rate of CcO in proteoliposomes upon addition of peptide [2]: does not change the reaction rate | final rate of the oxidase reaction, % of the initial ([3]; 20 μM P4 added in the course of the reaction, constant level 1.5 min later, solubilized CcO 20 nM): ≤ 15% | Ki ([3]; solubilized bovine heart CcO 20 nM, oxygen uptake, Clark electrode, 25 °C, BM 50 mM Hepes/Tris pH 7.6, 50 mM KCl, 1 mM (0.05%) DM, 5 mM ascorbate, 0.1 mM TMPD, 10 μM cytochrome c, fit by Equation (1), read-out: Inhibition of CcO, Solubilized, Ki(app)): 0.0076 mM | Ki ([3]; solubilized mitochondrial CcO, intercept of linear dependence of Ki(app) on [DM], read-out: true Ki (extrapolation of DM to zero)): 0.003 mM | time to reach the 100% level of calcein release ([4]; 100% = after Triton X-100 0.1%): 3 min | t1/2 of fluorescence increase (calcein release) ([4]; liposomes 0.1 mg lipid/mL, 20 mM MOPS/Tris pH 7.3, 0.2 mM EDTA, fluorescence 520 nm (excitation 490 nm)): ~ 12 s | rate of peroxidase reaction (ferricyanide formation) upon addition of peptide [5]: did not change
